Consider six compounds from ChEMBL document CHEMBL5357020, “Reducing Self-Assembly by Increasing Net Charge: Effect on Biological Activity of Mastoparan C” (ACS Med Chem Lett, 2024).

Calls of active or inactive are those of the source. The calls are words filed in the database; no cut-off is given here.

For one data set, the system named is Salmonella enterica. Nature of the data set: Antimicrobial activity against Salmonella enterica ATCC 13076 assessed as reduction in microbial growth after 24 hrs by broth microdilution method. Type of data set: functional. (Broth dilution looks for growth in wells or tubes with falling amounts of substance.)
The subject of another data set is Escherichia coli. Nature of the data set: Antimicrobial activity against Escherichia coli ATCC 25922 assessed as reduction in microbial growth after 24 hrs by broth microdilution method. Type of data set: functional.
In another data set the test system is Pseudomonas aeruginosa. The data set can be described thus: Antimicrobial activity against Pseudomonas aeruginosa ATCC 27853 assessed as reduction in microbial growth after 24 hrs by broth microdilution method. It counts as functional.
The next data set deals with Enterococcus faecalis. Nature of the data set: Antimicrobial activity against Enterococcus faecalis ATCC 29212 assessed as reduction in microbial growth after 24 hrs by broth microdilution method. Type of data set: functional.
Another data set relates to Candida albicans. Nature of the data set: Antifungal activity against Candida albicans ATCC 10231 assessed as reduction in fungal growth after 24 hrs by broth microdilution method. It counts as functional.
Another data set has as its system Staphylococcus aureus. The data set can be described thus: Antimicrobial activity against Staphylococcus aureus ATCC 25923 assessed as reduction in microbial growth after 24 hrs by broth microdilution method. It counts as functional.
Another data set deals with Listeria monocytogenes. Nature of the data set: Antimicrobial activity against Listeria monocytogenes ATCC 15313 assessed as reduction in microbial growth after 24 hrs by broth microdilution method. Type of data set: functional.
A further data set deals with Bacillus cereus. The data set can be described thus: Antimicrobial activity against Bacillus cereus ATCC 11778 assessed as reduction in microbial growth after 24 hrs by broth microdilution method. Type of data set: functional.
The subject of data set [1] is Erythrocyte. The data set can be described thus: Hemolytic activity in human RBC assessed as hemolysis at 2 to 128 uM incubated for 30 mins. Type of data set: toxicity, cell-based. The settings on record: 0.5 h, dose 2-128 µM.
The subject of data set [2] is Erythrocyte. Nature of the data set: Hemolytic activity in human RBC assessed as hemolysis at 32 uM incubated for 30 mins. It counts as toxicity, cell-based. Particulars: 0.5 h.
A further data set concerns A-427. The data set can be described thus: Anticancer activity against human A-427 cells assessed as inhibition of cell growth incubated for 24 hrs by CCK-8 assay. The settings on record: A-427, 24 h. It counts as functional, cell-based.
In another data set the test system is NCI-H441. The data set can be described thus: Anticancer activity against human NCI-H441 cells assessed as inhibition of cell growth incubated for 24 hrs by CCK-8 assay. It counts as functional, cell-based.

By MIC is commonly meant the least concentration at which growth counts as inhibited. `O=C(N[C@H](CO)[C@H](O)c1ccc([N+](=O)[O-])cc1)C(Cl)Cl` [CHLORAMPHENICOL]: the MIC in the data set with Salmonella enterica is 8 µM; with Escherichia coli, 8 µM; in the data set on Pseudomonas aeruginosa, more than 128 µM; in the data set on Enterococcus faecalis it was 64 µM; with Candida albicans, more than 128 µM; in the data set on Staphylococcus aureus, 32 µM. In addition, the minimal inhibitory concentration (MIC) in the data set with Listeria monocytogenes was 64 µM; in the data set on Bacillus cereus, 8 µM.
For `NC[C@H]1O[C@H](O[C@H]2[C@H](O)[C@@H](O[C@H]3O[C@H](CO)[C@@H](O)[C@H](N)[C@H]3O)[C@H](N)C[C@@H]2N)[C@H](O)[C@@H](O)[C@@H]1O` [KANAMYCIN], the MIC with Salmonella enterica was 16 µM; with Escherichia coli, 32 µM; in the data set on Pseudomonas aeruginosa it was more than 128 µM; in the data set with Enterococcus faecalis it was more than 128 µM; with Candida albicans, more than 128 µM; in the data set on Staphylococcus aureus, 32 µM. The values for the MIC in the data set with Listeria monocytogenes and in the data set with Bacillus cereus were 32 µM and 64 µM, respectively.
As for H-LNLKALLAVAKKIL-NH2, the minimum inhibitory concentration (MIC) in the data set on Salmonella enterica worked out at 32 µM; with Escherichia coli, 8 µM; in the data set with Pseudomonas aeruginosa, 64 µM; in the data set with Enterococcus faecalis, 4 µM; in the data set with Candida albicans it was 8 µM; in the data set on Staphylococcus aureus, 32 µM. For the same compound, the MIC in the data set with Listeria monocytogenes was 8 µM; in the data set on Bacillus cereus it was 4 µM. The Activity result with Erythrocyte [1] was “Non-Toxic”; with Erythrocyte [2] it was “Toxic”.
One may read the IC50 as the concentration at which inhibition is half-maximal. With H-LNLKALLKVAKKIL-NH2, in the data set with A-427, the IC50 came out at 7 µM. Further, the MIC with Salmonella enterica amounted to 64 µM; in the data set on Escherichia coli it was 8 µM; in the data set with Pseudomonas aeruginosa, 64 µM; in the data set on Enterococcus faecalis it was 4 µM; in the data set with Candida albicans, 16 µM; in the data set on Staphylococcus aureus, 32 µM. The MIC with Listeria monocytogenes came out at 4 µM; in the data set on Bacillus cereus it was 8 µM. Also, the Activity result is listed as “Non-Toxic” in the data set on Erythrocyte [1] and “Toxic” with Erythrocyte [2]. For the same compound, in the data set with NCI-H441, the outcome was Active.
Consider H-LNLKKLLAVAKKIL-NH2, for which the concentration for half-maximal inhibition (IC50) with A-427 worked out at 5.1 µM. In addition, the minimum inhibitory concentration (MIC) in the data set on Salmonella enterica is 64 µM; with Escherichia coli it was 8 µM; in the data set on Pseudomonas aeruginosa, 128 µM; in the data set with Enterococcus faecalis it was 8 µM; with Candida albicans, 32 µM; with Staphylococcus aureus, 64 µM. The MIC amounted to 8 µM with Listeria monocytogenes and 16 µM with Bacillus cereus. Besides, in the data set on Erythrocyte [1], the Activity entry is “Non-Toxic”. Also, the outcome with NCI-H441 was Active.
As to H-LNLKKLLKVAKKIL-NH2, the minimal inhibitory concentration (MIC) with Salmonella enterica came to 32 µM; with Escherichia coli, 8 µM; in the data set on Pseudomonas aeruginosa, 64 µM; in the data set with Enterococcus faecalis it was 4 µM; in the data set with Candida albicans, 16 µM; in the data set on Staphylococcus aureus it was 32 µM. In addition, the minimum inhibitory concentration (MIC) is 4 µM in the data set with Listeria monocytogenes and 16 µM with Bacillus cereus. For the same compound, the Activity entry in the data set with Erythrocyte [1] is reported as “Non-Toxic”.
